Patent US7851654B2, “Chalcone derivatives, pharmaceutically acceptable salt, method for preparation and uses thereof” (Industry-Academic Cooperation Foundation Gyeongsang …, priority 2006, dated 2010)

Key:
B-16 melanoma [1] = assay: Melanin synthesis inhibitory activity in B-16 melanoma; format: cell-based, mice; settings: Mus musculus, B16, DMEM with a-MSH and theophylline, read-out: IC50 melanin synthesis inhibition
Description: To identify the melanin synthesis inhibitory activities of the chalcone derivatives of the present invention, whitening effects were measured using B-16 melanoma. 2 ml of B-16 melanoma, derived from black mice, was added to the respective wells in concentration of 2×10^4 cells/well on a 6 well plate using DMEM with 10% FBS and cultivated under the conditions of 5% CO2 and 37° C. for twenty four hours. Media were removed after the cultivation and the DMEM used was replaced with DMEM having 10% FBS, 0.2 mM a-MSH and 2 mM theophylline. Subsequently, appropriate amounts of the chalcone compounds of Examples 2 to 6, 8, 13, 14, 17 and 18 were diluted with the same media and added thereto, respectively, to be cultivated under the conditions of 5% CO2 and 37° C. until the cells grew above 80%. The media were removed after the cultivation and the resultant compounds were washed with PBS and processed with […] to collect cell pellets. Collected pellets were moved to 1.5 ml of Eppendorf tubes to be centrifuged at […] for ten minutes. Then, the pellets in which supernatants were removed were dried in an incubator of 60° C. for twenty four hours. Subsequently, 1N NaOH was added thereto to dissolve melanins in the cells. Dissolved melanins are diluted with appropriate amounts of PBS to measure absorbance at 490 nm, thus obtaining melanin inhibitory rates via Equation 1 above (T. Mosmann, J. Immunol. Methods, 1983, 65, 55; P. R. Gorden, J. Invest. Dermatol., 1989, 92, 565). As a comparative example, the same experiment was carried out using albutin.

α-amylase = α-amylase inhibitory activity via analysis of reducing sugars; format: biochemical; settings: 1% starch substrate, DNS reagent, pH 4.5, 37° C., twenty minutes
Description: (§1) α-amylase, a kind of glycosidase enzymes, was used to identify glycosidase inhibitory activities of the chalcone derivatives of the present invention. Using 1% starch as substrate, α-amylase activities were measured by measuring the amounts in that α-amylases hydrolyzed the substrates after adding DNS (1% dinitrosalicylic acid, 12% potassium sodium tartrate in 0.4 M NaOH), a color reagent (Bioorg. Med. Chem. Lett., 2002, 12, 2335-2339). 1% starch as substrate was dissolved in acetate buffer (0.05 M, pH 4.5) in test tubes. After preprocessing at 37° C. for ten minutes, the resultant solutions were quantified as 100 μl in tubes. α-amylases of 0.25 unit/ml, prepared with the acetate buffer, were quantified as 100 μl. Subsequently, the chalcone derivatives prepared in Examples 2, 5, 6, 8, 9, 10, 11 and 12 in accordance with the present invention were dissolved in 50% DMSO solvent and quantified as 50 μl, respectively. After reacting the samples quantified at 37° C. for twenty minutes, 300 μl of DNS, the color reagent, were added thereto. Next, the resultant solutions were reacted in boiled water for ten minutes and cooled to measure absorbance at 540 nm, thus obtaining amylase inhibitory rates via equation 1 above. Measured IC50 values of the chalcone derivatives prepared in Examples 2, 5, 6, 8, 9, 10, 11 and 12 for α-amylases were depicted in table 3.

β-amylase = β-amylase inhibitory activity via analysis of reducing sugars; format: biochemical; settings: 1% starch substrate, DNS reagent, same manner as α-amylase test
Description: as §1
β-amylase inhibitory activities were measured in the same manner as Experimental example 2 except for using β-amylases as glycosidase and the IC50 values were depicted in Table 3 above.

B-16 melanoma [2] = assay: Cytotoxicity in B-16 melanoma; format: cell-based, mice; settings: melanin test not performed because of cytotoxicity

Compound	IC50 (B-16 melanoma [1]) [µM]	IC50 (α-amylase) [µM]	IC50 (β-amylase) [µM]	other results
OC[C@H]1O[C@@H](Oc2ccc(O)cc2)[C@H](O)[C@@H](O)[C@@H]1O [Albutin, albutin, reference compound]	92	–	–	–
Cc1ccc(S(=O)(=O)Nc2ccc(C(=O)/C=C/c3ccc(O)cc3)cc2)cc1 [Example 2, 4′-(p-toluenesulfonylamino)-4-hydroxychalcone]	14.8	87.8	247	–
O=C(/C=C/c1ccc(O)cc1)c1ccc(NS(=O)(=O)c2ccccc2)cc1 [Example 3, 4′-benzenesulfonylamino-4-hydroxychalcone]	20.6	–	–	–
O=C(/C=C/c1ccc(O)cc1)c1ccc(NS(=O)(=O)c2ccc([N+](=O)[O-])cc2)cc1 [Example 4, 4′-(p-nitrobenzenesulfonylamino)-4-hydroxychalcone]	–	–	–	cytotoxicity of the compounds (B-16 melanoma [2]): ND^a (ND denotes the cases where the experiments on the melanin synthesis inhibitory activities in B-16 melanoma were not performed since the cytotoxicity of the compounds was shown as more than 50%)
O=C(/C=C/c1ccc(O)cc1)c1ccc(NS(=O)(=O)c2ccc(F)cc2)cc1 [Example 5, 4′-(p-fluorobenzenesulfonylamino)-4-hydroxychalcone]	23.7	–	127	IC50 α-amylase (α-amylase): NI^a (NI denotes the cases where the inhibitory rates were below 20% measured when the concentration of the chalcone derivatives was 200 μM or means that there were no inhibitory activities for α-, or β-amylases)
CS(=O)(=O)Nc1ccc(C(=O)/C=C/c2ccc(O)cc2)cc1 [Example 6, 4′-(methanesulfonylamino)-4-hydroxychalcone]	20.3	194	65	–
Nc1ccc(C(=O)/C=C/c2ccc(O)cc2)cc1 [Example 8, 4′-amino-4-hydroxychalcone]	12.5	269	–	IC50 β-amylase (β-amylase): NI (NI denotes the cases where the inhibitory rates were below 20% measured when the concentration of the chalcone derivatives was 200 μM or means that there were no inhibitory activities for α-, or β-amylases)
O=C(/C=C/c1ccc(O)c(O)c1)c1ccc(NS(=O)(=O)c2ccccc2)cc1 [Example 9, 4′-benzenesulfonylamino-3,4-dihydroxychalcone]	–	–	206	IC50 α-amylase (α-amylase): NI (NI denotes the cases where the inhibitory rates were below 20% measured when the concentration of the chalcone derivatives was 200 μM or means that there were no inhibitory activities for α-, or β-amylases)
O=C(/C=C/c1ccc(O)c(O)c1)c1ccc(NS(=O)(=O)c2ccc([N+](=O)[O-])cc2)cc1 [Example 10, 4′-(p-nitrobenzenesulfonylamino)-3,4-dihydroxychalcone]	–	37.3	201	–
O=C(/C=C/c1ccc(O)c(O)c1)c1ccc(NS(=O)(=O)c2ccc(F)cc2)cc1 [Example 11, 4′-(p-fluorobenzenesulfonylamino)-3,4-dihydroxychalcone]	–	–	–	IC50 α-amylase (α-amylase): NI (NI denotes the cases where the inhibitory rates were below 20% measured when the concentration of the chalcone derivatives was 200 μM or means that there were no inhibitory activities for α-, or β-amylases); IC50 β-amylase (β-amylase): NI (NI denotes the cases where the inhibitory rates were below 20% measured when the concentration of the chalcone derivatives was 200 μM or means that there were no inhibitory activities for α-, or β-amylases)
CS(=O)(=O)Nc1ccc(C(=O)/C=C/c2ccc(O)c(O)c2)cc1 [Example 12, 4′-(methanesulfonylamino)-3,4-dihydroxychalcone]	–	16.8	24.8	–
Nc1cccc(C(=O)/C=C/c2ccc(O)cc2)c1 [Example 13, 3′-amino-4-hydroxychalcone]	–	–	–	cytotoxicity of the compounds (B-16 melanoma [2]): ND (ND denotes the cases where the experiments on the melanin synthesis inhibitory activities in B-16 melanoma were not performed since the cytotoxicity of the compounds was shown as more than 50%)
Cc1ccc(S(=O)(=O)Nc2cccc(C(=O)/C=C/c3ccc(O)cc3)c2)cc1 [Example 14, 3′-(p-toluenesulfonylamino)-4-hydroxychalcone]	25.6	–	–	–
O=C(/C=C/c1ccc(O)cc1)c1ccccc1 [Example 17, 4-hydroxychalcone]	–	–	–	cytotoxicity of the compounds (B-16 melanoma [2]): ND (ND denotes the cases where the experiments on the melanin synthesis inhibitory activities in B-16 melanoma were not performed since the cytotoxicity of the compounds was shown as more than 50%)
O=C(/C=C/c1ccc(O)cc1)c1ccc(O)cc1 [Example 18, 4′,4-dihydroxychalcone]	–	–	–	cytotoxicity of the compounds (B-16 melanoma [2]): ND (ND denotes the cases where the experiments on the melanin synthesis inhibitory activities in B-16 melanoma were not performed since the cytotoxicity of the compounds was shown as more than 50%)
